# Biological target: cGAS (Homo sapiens, UniProt Q8N884)
# Assay: ISD70-driven IP-10 (and IFN-β) production in THP-1 cells, ELISA
# Assay type: cell-based
# Set-up: endogenous in cells; host or cells: THP-1 (undifferentiated)
# Settings: ASO 100 nM; relative to ISD70 only, given as fraction
# Chain of cGAS (Q8N884 whole entry): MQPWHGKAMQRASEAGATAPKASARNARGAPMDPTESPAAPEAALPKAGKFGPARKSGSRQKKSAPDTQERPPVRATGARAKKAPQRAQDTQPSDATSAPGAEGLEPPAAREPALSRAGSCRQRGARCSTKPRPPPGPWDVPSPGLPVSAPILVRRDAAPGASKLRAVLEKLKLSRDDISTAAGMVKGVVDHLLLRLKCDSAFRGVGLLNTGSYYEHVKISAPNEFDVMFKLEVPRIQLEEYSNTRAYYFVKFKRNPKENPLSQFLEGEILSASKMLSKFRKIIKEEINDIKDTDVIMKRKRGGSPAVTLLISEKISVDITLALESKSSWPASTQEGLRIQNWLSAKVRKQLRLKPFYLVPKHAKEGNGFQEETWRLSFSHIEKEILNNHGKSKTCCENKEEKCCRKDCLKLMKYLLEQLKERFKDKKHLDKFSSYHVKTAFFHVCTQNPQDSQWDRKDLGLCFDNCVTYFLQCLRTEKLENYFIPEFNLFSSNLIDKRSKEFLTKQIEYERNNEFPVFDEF
row,Sequence,cGAS 100 nM (averaged IP-10 level relative to ISD70 condition)
1,"AAAGGACTGAGGAAAG (antisense; LNA-modified, pattern not given here) [CAMSAP1-6273 LNA KL]",0.675
2,"AACACTTCGTGGGGTC (antisense; LNA-modified, pattern not given here) [HPRT LNA-666 V1]",0.598
3,"AACCCCTTTCACCATC (antisense; LNA-modified, pattern not given here) [MB21D1-689 LNA KL]",0.621
4,"AATCCAACAAAGTCTG (antisense; LNA-modified, pattern not given here) [HPRT LNA-692 KL]",0.649
5,"ACCACGTCTGCTCTAA (antisense; LNA-modified, pattern not given here) [CAMSAP1-1635 LNA KL]",0.638
6,"ACGTTCAGTCCTGTCC (antisense; LNA-modified, pattern not given here) [HPRT LNA-294 V1]",0.880
7,"ACTTCGTGGGGTCCTT (antisense; LNA-modified, pattern not given here) [HPRT LNA-663 V1]",0.937
8,"AGATTTCAGAGCAGCT (antisense; LNA-modified, pattern not given here) [EGFR-4885 LNA KL]",0.625
9,"AGCTTCGAGGCCCCAG (antisense; LNA-modified, pattern not given here) [MB21D1-616 LNA V1]",0.648
10,"AGGACTCCAGATGTTT (antisense; LNA-modified, pattern not given here) [HPRT LNA pos cont]",0.632
11,"AGGCCCTTCGCACTTC (antisense; LNA-modified, pattern not given here) [EGFR-1225 LNA V1]",0.629
12,"AGGTCTTGGCTTCGTG (antisense; LNA-modified, pattern not given here) [MB21D1-524 LNA V1]",0.947
13,"AGTGTTGAGATACTCG (antisense; LNA-modified, pattern not given here) [EGFR-3652 LNA KL]",0.692
14,"ATCTGGCAGCCCATCA (antisense; LNA-modified, pattern not given here) [CTNN2B-2516 LNA V1]",0.502
15,"ATGGCCTCCCATCTCC (antisense; LNA-modified, pattern not given here) [HPRT LNA-330 V1]",0.475
16,"ATGTGATGGCCTCCCA (antisense; LNA-modified, pattern not given here) [HPRT LNA-335 V1]",0.606
17,"CACTTCGTGGGGTCCT (antisense; LNA-modified, pattern not given here) [HPRT LNA-664 V1]",0.562
18,"CATCCACCACGTCGTC (antisense; LNA-modified, pattern not given here) [EGFR-3266 LNA V1]",0.902
19,"CCAACACTTCGTGGGG (antisense; LNA-modified, pattern not given here) [HPRT LNA-668 V1]",0.842
20,"CCACATCCTGTGGCTC (antisense; LNA-modified, pattern not given here) [CAMSAP1-2906 LNA V1]",0.999
21,"CCACTTGGCAGACCAT (antisense; LNA-modified, pattern not given here) [CTNN2B-1575 LNA V1]",0.532
22,"CCAGCAGGTCAGCAAA (antisense; LNA-modified, pattern not given here) [HPRT LNA-388 KL]",0.552
23,"CCTTGCACGTGGCTTC (antisense; LNA-modified, pattern not given here) [EGFR-1013 LNA V1]",0.559
24,"CGCTTTTCTGTCTGGT (antisense; LNA-modified, pattern not given here) [CTNN2B-311 LNA KL]",0.475
25,"CGGCCTCGGAAGCTCT (antisense; LNA-modified, pattern not given here) [MB21D1-168 LNA V1]",0.617
26,"CGTATTATAGCCGATT (antisense; LNA-modified, pattern not given here) [NC1 LNA PS 3-10-3]",0.443
27,"CTGCAGCTTCCTTGTC (antisense; LNA-modified, pattern not given here) [CTNN2B-2136 LNA V1]",0.613

row,Sequence,cGAS 100 nM (averaged IP-10 level relative to ISD70 condition)
1,"CTTCGTGGGGTCCTTT (antisense; LNA-modified, pattern not given here) [HPRT LNA-662 V1]",0.556
2,"CTTGAAGCATCGTATC (antisense; LNA-modified, pattern not given here) [CTNN2B-3648 LNA KL]",0.373
3,"CTTGGCTTCGTGGAGC (antisense; LNA-modified, pattern not given here) [MB21D1-520 LNA V1]",0.666
4,"GAAAGGTTATGCAAGG (antisense; LNA-modified, pattern not given here) [CTNN2B-916 LNA KL]",0.473
5,"GACTATACGCGCAATA (antisense; LNA-modified, pattern not given here) [NC5 LNA PS 3-10-3]",0.991
6,"GAGGTCTTGGCTTCGT (antisense; LNA-modified, pattern not given here) [MB21D1-525 LNA V1]",0.508
7,"GATGGCCTCCCATCTC (antisense; LNA-modified, pattern not given here) [HPRT LNA-331 V1]",0.632
8,"GCACACTTCGTACCCA (antisense; LNA-modified, pattern not given here) [CAMSAP1-4915 LNA V1]",0.383
9,"GCACTTCAGTCTGAGC (antisense; LNA-modified, pattern not given here) [MB21D1-719 LNA KL]",0.797
10,"GGAGGTCTTGGCTTCG (antisense; LNA-modified, pattern not given here) [MB21D1-526 LNA V1]",1.061
11,"GGCTCGGCTTGCCTAC (antisense; LNA-modified, pattern not given here) [CAMSAP1-5594 LNA V1]",0.761
12,"GGTCATTACAATAGCT (antisense; LNA-modified, pattern not given here) [HPRT LNA-475 KL]",0.751
13,"GGTCTTGGCTTCGTGG (antisense; LNA-modified, pattern not given here) [MB21D1-523 LNA V1]",0.648
14,"GTCAAGGGCATATCCT (antisense; LNA-modified, pattern not given here) [HPRT LNA-732 KL]",0.636
15,"GTCCTTGCACGTGGCT (antisense; LNA-modified, pattern not given here) [EGFR-1015 LNA V1]",0.645
16,"GTCTCTGGAGCTTCCT (antisense; LNA-modified, pattern not given here) [CAMSAP1-2456 LNA V1]",0.627
17,"GTCTTCATCGGCCCTG (antisense; LNA-modified, pattern not given here) [CAMSAP1-2113 LNA V1]",0.809
18,"GTGATCTTGACATGCT (antisense; LNA-modified, pattern not given here) [EGFR-2790 LNA KL]",0.661
19,"GTGATGGCCTCCCATC (antisense; LNA-modified, pattern not given here) [HPRT LNA-333 V1]",0.724
20,"TACTTTCCGAGGTGTC (antisense; LNA-modified, pattern not given here) [CAMSAP1-1739 LNA KL]",0.638
21,"TCCACAATCAAGACAT (antisense; LNA-modified, pattern not given here) [HPRT LNA-551 KL]",0.601
22,"TCCATACCCAAGGCAT (antisense; LNA-modified, pattern not given here) [CTNN2B-2446 LNA V1]",0.589
23,"TCCGCCCAAAGGGAAC (antisense; LNA-modified, pattern not given here) [HPRT LNA-1027 KL]",0.860
24,"TCCTTGCACGTGGCTT (antisense; LNA-modified, pattern not given here) [EGFR-1014 LNA V1]",0.591
25,"TCGTGGGGTCCTTTTC (antisense; LNA-modified, pattern not given here) [HPRT LNA-660 V1]",0.729
26,"TCTTCATCGGCCCTGC (antisense; LNA-modified, pattern not given here) [CAMSAP1-2112 LNA V1]",0.548

# Same assay, conditions: MOE-modified ASO at 100 nM; averaged IP-10 levels relative to ISD70 condition
row,Sequence,cGAS 100 nM
1,"ACACTTCGTGGGGTCCTTTT (antisense; 2'-MOE modified, pattern not given here) [HPRT-663 MOE]",0.623

# Same assay, conditions: THP-1; 300 nM LNA or 200 nM MOE ASO ~30 min; ISD70 overnight (FIG. 21, 23)
row,Sequence,"inhibition of cGAS in THP-1, LNA and MOE ASO validation (in words)"
1,"CGCTTTTCTGTCTGGT (antisense; LNA-modified, pattern not given here) [CTNN2B-311 LNA KL]",potently inhibited signalling
2,"CTTGAAGCATCGTATC (antisense; LNA-modified, pattern not given here) [CTNN2B-3648 LNA KL]",failed to significantly inhibit cGAS

# From patent US20240384268A1, “Oligonucleotides” (Hudson Institute of Medical Research, priority 2021, published 2024)
